Assay results taken from patent US20080003684A1, “DIAGNOSTIC METHOD FOR MYOPATHY” (priority 2006, published 2008).

Legend:
human skeletal muscle [1] = assay: Whole genome microarray analysis in muscle biopsies, single-gene analysis; settings: high dose statin treatment, criteria 1.5-fold change and p-value <0.05
human skeletal muscle [2] = assay: Gene set enrichment analysis (GSEA) of muscle microarray data; settings: high dose statin treatment, FDR<0.25
MYL5 = assay: RealTime Quantitative TaqMan PCR of muscle RNA; assay type: in vivo, human; settings: n=5, p=0.021
Procedure: (§1) Based on a hierarchical cluster analysis (described in Example 1) 20 genes were selected for further RT-PCR control in order to identify a gene expression based fingerprint for statin effect on human skeletal muscle.
(§2) The microarray expression results recorded in the simvastatin group (n=5, for one case there was not enough muscle RNA for PCR) were verified by RealTime Quantitative TaqMan PCR. Previously purified cRNA was used as starting material for cDNA synthesis. A 1000 ng-18 μl aliquote of cRNA was mixed with 1 μl Promega Random Primer (C1181, Promega U.S., Madison, Wis., USA) and incubated in +70° C. for 10 min. The following reagents were added leading to 25 μl total reaction volume: 1 μl of 10 μM dNTP blend (F09892, Applied Biosystems, Foster City, Calif., USA), 1 μl of Promega M-MLV Reverse Transcriptase 200 U/μl (M3682) and 4 μl of M-MLV RT 5× reaction buffer. Finally the incubations were performed in the following order: 10 min in RT, 50 min in 45° C., and, 10 min in 70° C. 10 μl volume was used for PCR reaction, consisting of 2 μl aliquote of 1:10 diluted cDNA sample, and, Abgene ABsolute 2×QPCR ROX mix (AB-1139, Abgene, Epsom, UK). The primer concentrations were 300 nM, probe concentrations for Universal Probe Library (Exiqon, Vedbaek, Denmark) probes 100 nM and for ordinary long probes 200 nM. Finally the PCR reactions were performed in rtPCR system (ABI Prism 7700 Sequence Detection System, Applied Biosystems) having the following PCR procedure: 95° C. for 15 min, and 40 cycles of 95° C. for 15 s and 60° C. for 1 min.

ALOX5AP = assay: RealTime Quantitative TaqMan PCR of muscle RNA; assay type: in vivo, human; settings: n=5, p=0.041
Procedure: as §1, §2

COL3A1 = assay: RealTime Quantitative TaqMan PCR of muscle RNA; assay type: in vivo, human; settings: n=5, p=0.026
Procedure: as §1, §2

CCL5 = assay: RealTime Quantitative TaqMan PCR of muscle RNA; assay type: in vivo, human; settings: n=5, p=0.011
Procedure: as §1, §2

MYBPH = assay: RealTime Quantitative TaqMan PCR of muscle RNA; assay type: in vivo, human; settings: n=5, p=0.027
Procedure: as §1, §2

Structure (SMILES) | number of genes whose expression changed significantly during the intervention (human skeletal muscle [1]) | number of pathways up-regulated / affected in GSEA (human skeletal muscle [2]) | number of genes up-regulated (human skeletal muscle [1]) [genes] | MYL5 expression change by RT-PCR (MYL5) | ALOX5AP expression change by RT-PCR (ALOX5AP) | COL3A1 expression change by RT-PCR (COL3A1) | CCL5 expression change by RT-PCR (CCL5) | MYBPH expression change by RT-PCR (MYBPH)
CC(C)c1c(C(=O)Nc2ccccc2)c(-c2ccccc2)c(-c2ccc(F)cc2)n1CC[C@@H](O)C[C@@H](O)CC(=O)O [atorvastatin] | five | no pathways appeared to be affected significantly | – | – | – | – | – | –
CCC(C)(C)C(=O)O[C@H]1C[C@@H](C)C=C2C=C[C@H](C)[C@H](CC[C@@H]3C[C@@H](O)CC(=O)O3)[C@H]21 [simvastatin] | 111 genes | 143 pathways | 85 | +8.0 fold | +3.6 fold | +27.1 fold | +11.9 fold | +49.0 fold
